Nine compounds from patent publication US5104889A, “Thiazole derivatives” (Otsuka Pharmaceutical Factory, Inc., priority 1986, dated 1992) can be followed below.

The structures appear in SMILES notation. ≈ marks a conversion by molar mass, not a printed value.

The assay deals with fetal bovine heart-derived endothelial cells (FBHE cells). Nature of the assay: Angiogenesis inhibiting activity test: inhibition of proliferation of cultured FBHE cells (neutral red uptake, 3 days). The note with it: for IC50: Bos taurus, Endothelial cell, 3 days incubation, 10% FBS-added DME, 0.05% DMSO; for IC50 / FGF-/FGF+ ratio: FBHE cells; for FGF-/FGF+ ratio: ratio of IC50 without FGF to IC50 with FGF, 4320 min. It counts as cell-based. Here is the method: For use in this test, FBHE cells purchased from the ATCC were maintained by subculturing in a medium prepared by adding 20 ng/ml of fibroblast growth factor (FGF; Collaborative Research) to Dulbecco's modified Eagle's medium (DME; Nissui Seiyaku) supplemented with 10% fetal bovine serum (FBS). From two days before the start of the experiment, the addition of FGF was omitted and FBHE cells were cultured in DME with 10% FBS alone added. At the start of the experiment, the culture medium was removed, phosphate-buffered saline solution (PBS^(-); Nissui Seiyaku) was added instead, and cells were rinsed lightly. Then the PBS^(-) was removed, an adequate amount of 0.1% EDTA-0.2% trypsin solution was added and, after light rinsing, removed, and cells were stripped off. After addition of 10% FBS-added DME and sufficient pipetting, the cells stripped off were transferred to a centrifugal tube and centrifuged for washing (1,200 rpm, 5 minutes). The viable cell count was determined using a hemocytometer with the number of dead cells stained with trypan blue being substracted. The cell concentration was adjusted to 3×10^3 cells/well using 10% FBS-added DME. A cell suspension was thus prepared. […] For attaining test substance concentrations, serial double dilution was performed starting with 10 μg/ml. The following procedure was followed. Thus, to each well of 96-well Multiplates (Corning), there was added 50 μl of DME containing 10% FBS. Then, 50 μl of each test substance solution having the highest final concentration of 10 μg/ml was added to the well for the highest concentration and then serial dilution was carried out on each plate. Furthermore, 50 μl of FGF (5 ng/ml at maximum) was added to each well, followed by final addition of 100 μl of the cell suspension. The plates prepared by the above procedure were incubated in a carbon dioxide gas incubator for 3 days. After 3 days of incubation, neutral red was added to each well and the cells were allowed to take up the dye by 2 hours incubation in a carbon dioxide gas incubator. Thereafter, the cells were rinsed twice with PBS^(-) or physiological saline. Finally, 100 μl of acid alcohol (a 1:1 mixed solution prepared from 0.1 M aqueous monosodium phosphate solution and ethanol) was added to each well for dissolution thereinto of the dye taken up, and the absorbance of the resultant dye solution was determined using an absorptiometer. The absorbance values measured by the above procedure (3) for each dilution of each test substance with addition of FGF and without addition of FGF (normal condition) were plotted on a graph paper, and the test substance concentration required for 50% inhibition of the proliferation of cultured FBHE cells was determined from the graph obtained and expressed as an IC50 value.

The mark [1] stands for this setting: 72 h, with addition of FGF (5 ng/ml at maximum).
Where [2] appears, read: 72 h, without addition of FGF (normal condition).

`CC(C)(C)c1cc(Nc2nccs2)cc(C(C)(C)C)c1O` [Example 2, 2,6-Di-tert-butyl-4-[(2-thiazolyl)amino]phenol]: the “FGF-/FGF+ ratio” value is 12.0. Under setting [1], this compound registered an IC50 of 0.89 µg/mL (≈ 2.92 µM). Besides, under setting [2], the half-inhibitory concentration (IC50) is 10.7 µg/mL (≈ 35.1 µM).
Taken in the same sequence, the figures for `CCCCCc1sc(Nc2cc(C(C)(C)C)c(O)c(C(C)(C)C)c2)nc1C` [Example 6] were 4.2, 2.18 µg/mL (≈ 5.61 µM) and 9.21 µg/mL (≈ 23.7 µM).
On to `Cc1nc(Nc2cc(C(C)(C)C)c(O)c(C(C)(C)C)c2)sc1C` [Example 11, 2,6-Di-tert-butyl-4-[(4,5-dimethyl-2-thiazolyl)amino]phenol], for which the “FGF-/FGF+ ratio” value was found to be 4.2. For the same compound, the “IC50 FGF-” value (72 h) is 25.94 µg/mL (≈ 78 µM). The compound also came in with an IC50 under setting [1] of 6.14 µg/mL (≈ 18.5 µM).
As to `CCSc1sc(Nc2cc(C(C)(C)C)c(O)c(C(C)(C)C)c2)nc1C` [Example 12, 2,6-Di-tert-butyl-4-[(4-methyl-5-ethylthio-2-thiazolyl)amino]phenol], the “FGF-/FGF+ ratio” value was 4.2. This compound also gave a concentration for half-maximal inhibition (IC50) under setting [1] of 1.55 µg/mL (≈ 4.09 µM). Also, the IC50 under setting [2] is 6.53 µg/mL (≈ 17.2 µM).
In the case of `CCOC(=O)c1sc(Nc2cc(C(C)(C)C)c(O)c(C(C)(C)C)c2)nc1C` [Example 18, 2,6-Di-tert-butyl-4-[(4-methyl-5-ethoxycarbonyl-2-thiazolyl)amino]phenol], the “FGF-/FGF+ ratio” value is reported as 6.2. Also, under setting [1], half-maximal inhibition (IC50) was put at 1.92 µg/mL (≈ 4.92 µM). The midpoint of inhibition under setting [2], the IC50, lay at 11.9 µg/mL (≈ 30.5 µM).
For `CC(C)(C)c1cc(Nc2nc(CO)cs2)cc(C(C)(C)C)c1O.Cl.Cl` [Example 25, 2,6-di-tert-butyl-4-[(4-hydroxymethyl-2-thiazolyl)amino]phenol dihydrochlo ride], the “FGF-/FGF+ ratio” value was determined as 6.3. The compound also displayed an IC50 under setting [1] of 0.92 µg/mL. Moreover, under setting [2], the IC50 is 5.76 µg/mL.
For the compound `CC(C)(C)c1cc(Nc2nc(C(=O)NN)cs2)cc(C(C)(C)C)c1O` [Example 35, 2,6-di-di-tert-butyl-4-[(4-carbazoyl-2-thiazolyl)amino]phenol], the “FGF-/FGF+ ratio” value is 6.0. This compound had an IC50 under setting [1] of 0.61 µg/mL (≈ 1.68 µM). The midpoint of inhibition under setting [2], the IC50, lay at 3.66 µg/mL (≈ 10.1 µM).
Turning to `CCOC(=O)c1csc(Oc2cc(C(C)(C)C)c(O)c(C(C)(C)C)c2)n1` [Example 40, 2,6-di-tert-butyl-4-[(4-ethoxycarbonyl-2-thiazolyl)oxy]phenol], the “FGF-/FGF+ ratio” value was determined as 7.7. Moreover, it took 0.74 µg/mL (≈ 1.96 µM) to reach half-maximal inhibition under setting [1] (IC50). Under setting [2], the midpoint of inhibition, the IC50, lay at 5.72 µg/mL (≈ 15.2 µM).
For `CC(C)(C)c1cc(Sc2nccs2)cc(C(C)(C)C)c1O` [Example 42, 2,6-Di-tert-butyl-4-(2-thiazolylthio)phenol], in that order: 4.7, 1.85 µg/mL (≈ 5.75 µM) and 8.71 µg/mL (≈ 27.1 µM).

The term IC50 denotes the midpoint of a concentration-inhibition curve. Low readings indicate greater potency in that assay, high ones weaker potency in that assay.
